Test results as given in the SangsterLogP compilation.

Experiment: method code SF-HPLC, from DOI: 10.1016/j.ejps.2004.08.007, PMID: 15567286
Conditions: pH 7.4

Question: Which logD does the source give for O=C(Nc1cc[nH]c(=O)n1)OC12CC3CC(CC(C3)C1)C2 here?
Answer: 2.9

Question: For CC(C)(C)COC(=O)Nc1cc[nH]c(=O)n1, which logD is on record?
Answer: 1.5

Question: For CCCCCCCCOC(=O)Nc1cc[nH]c(=O)n1, which logD is on record?
Answer: 3.3

Question: For O=C(Nc1cc[nH]c(=O)n1)OCc1ccccc1, which logD is on record?
Answer: 1.3

Question: Which logD does the source give for CCOC(=O)Nc1cc[nH]c(=O)n1 here?
Answer: -0.09

Question: With CCCCOC(=O)Nc1cc[nH]c(=O)n1 as the compound, how does the logD read?
Answer: 1.1

Question: Which logD does the source give for COC(=O)Nc1cc[nH]c(=O)n1 here?
Answer: -0.55

Question: For CCCCCCOC(=O)Nc1cc[nH]c(=O)n1, which logD is on record?
Answer: 2.3

Question: For CC(C)COC(=O)Nc1cc[nH]c(=O)n1, which logD is on record?
Answer: 1.1

Experiment: method code SF, from DOI: 10.1016/j.ejps.2004.08.007, PMID: 15567286
Conditions: not given

Question: Which logP does the source give for O=Cc1ccc(C(=O)O)cc1 here?
Answer: 1.52
